Like-named read-outs stand apart in the source and are kept apart here.

We go through 29 compounds from publication PMC9610990, “Inhibitory Activity of Bioactive Phloroglucinols from the Rhizomes of Dryopteris crassirhizoma on Escherichia coli β-Glucuronidase: Kinetic Analysis and Molecular Docking Studies” (Metabolites, 2022).

Test [1] addresses T1, β-Glucuronidase from E. coli (Escherichia coli, UniProt P05804). Nature of the test: β-Glucuronidase inhibitory activity assay with PNPG substrate. The following applies: for Inhibition of Compounds on β-glucuronidase, Inhibition at 100 μM (%): compound at 100 μM; for inhibition at 100 µM: read-out: Inhibition of Compounds on β-glucuronidase, Inhibition at 100 μM (%).
Test [2] has as its target T1, β-Glucuronidase from E. coli. Kind of test: Inhibition kinetic analysis with β-glucuronidase (Lineweaver–Burk and Dixon plots). It counts as biochemical. To be noted: for Ki: determined by Dixon plots; for Inhibition Type: determined by Lineweaver–Burk plots. As to the method:
To identify the inhibition mode of the active compounds on β-glucuronidase, two enzyme kinetic methodologies, the Lineweaver-Burk and Dixon methods, were used. The mode of β-glucuronidase inhibition was determined using a Lineweaver–Burk plot (or double reciprocal plot) at various concentrations of the substrate in the absence or presence of the test compound (concentrations: 0, 10, 20, 40, 60, and 80 µM for 13 and 15; 0, 7.5, 15, 30, 60, and 80 µM for 14; 0, 5, 10, 20, 40, and 60 µM for 26 and 27; and 0, 2.5, 5, 10, 20, and 40 µM for 28). The enzymatic reactions at various concentrations of the test compounds were evaluated by monitoring the effects of different substrate concentrations using Dixon plots (or single reciprocal plots) (0.25, 0.5, 1, and 2.5 mM). Ki values were determined by analyzing the Dixon plot, where the x-axis value was taken as Ki.

Test [3] relates to B16F10 murine melanoma cells. Also on record: method as in doi:10.1016/j.phytol.2017.05.022. To be noted: read-out: inhibition of melanin production IC50; cited from earlier work.
For another test, the system named is PTP1B enzyme. Also on record: method as in PMID 34416263. The following applies: in words; cited from earlier work.
Test [4] deals with neuraminidase of influenza virus H5N1. To be noted: read-out: inhibitory effect on neuraminidase IC50; cited from earlier work.
Where [5] appears, read: PNPG substrate, mean ± SEM of three independent experiments.
Where [6] appears, read: read-out: Inhibition of Compounds on β-glucuronidase, IC50, PNPG substrate, mean ± SEM of three independent experiments.

T1 sequence (P05804 whole entry): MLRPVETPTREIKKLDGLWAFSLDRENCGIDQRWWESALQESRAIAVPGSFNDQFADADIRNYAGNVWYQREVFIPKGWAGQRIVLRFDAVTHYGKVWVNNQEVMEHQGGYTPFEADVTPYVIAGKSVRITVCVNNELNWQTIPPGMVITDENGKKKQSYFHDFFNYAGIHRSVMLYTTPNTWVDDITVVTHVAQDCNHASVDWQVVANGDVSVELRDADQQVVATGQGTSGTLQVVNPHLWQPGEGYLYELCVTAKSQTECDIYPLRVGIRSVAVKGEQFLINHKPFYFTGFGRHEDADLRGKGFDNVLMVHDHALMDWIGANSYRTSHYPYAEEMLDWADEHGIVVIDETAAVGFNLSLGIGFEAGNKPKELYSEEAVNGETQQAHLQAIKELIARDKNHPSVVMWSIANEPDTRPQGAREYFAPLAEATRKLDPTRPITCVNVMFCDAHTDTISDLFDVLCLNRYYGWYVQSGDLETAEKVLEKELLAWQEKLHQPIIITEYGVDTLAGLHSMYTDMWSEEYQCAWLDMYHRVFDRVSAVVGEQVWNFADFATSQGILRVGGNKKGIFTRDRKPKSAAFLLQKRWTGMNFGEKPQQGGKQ

As for “1-(2,4,6-trihydroxy-3-methylphenyl)propanone [Compound 7]”, the “Inhibition of Compounds on β-glucuronidase, Inhibition at 100 μM (%)” value in test [1] (setting [5]) turned out to be 26.7 ± 1.5%. Besides, the half-inhibitory concentration (IC50) (usually the midpoint of a concentration-inhibition curve) in test [1] (setting [6]) was above 100 µM.

Consider “1-(2, 4, 6-trihydroxy-3-methylphenyl) butanone [Compound 8]”, for which the “Inhibition of Compounds on β-glucuronidase, Inhibition at 100 μM (%)” value in test [1] (setting [5]) is on record as 24.9 ± 5.5%. In test [1] (setting [6]), the half-inhibitory concentration (IC50) is above 100 µM.

Turning to `CC(=O)c1c(O)cc(O)cc1O` [Compound 1, 2,4,6-trihydroxy-acetophenone], in test [1], the IC50 is above 100 µM and the inhibition (as a rule, the change of the read-out against control, counted positive when it falls) at 100 µM was found to be 11.6 ± 3.9%.

In the case of `CCC(=O)c1c(O)cc(O)cc1O` [Compound 2, 1-(2,4,6-trihydroxy-phenyl)-propan-1-one], in test [1], the IC50 is above 100 µM and the inhibition at 100 µM was 24.4 ± 0.2%.

As for `CCCC(=O)c1c(O)cc(O)cc1O` [Compound 3, phlorobutyrophenone], in test [1], the half-inhibitory concentration (IC50) is above 100 µM and the inhibition at 100 µM was determined as 22 ± 2.1%.

`CC(=O)c1c(O)cc(O)c(C(C)=O)c1O` [Compound 4, 5-acetyl-2,4,6-trihydroxyacetophenone]: in test [1], the half-inhibitory concentration (IC50) was above 100 µM and the inhibition at 100 µM was 22.1 ± 2.4%.

In the case of `CCC(=O)c1c(O)cc(O)c(C(=O)CC)c1O` [Compound 5, 1,3-(2,4,6-trihydroxyphenyl)dipropanone], in test [1], the half-inhibitory concentration (IC50) was above 100 µM and the inhibition at 100 µM was found to be 27.1 ± 0.4%.

As to `CCCC(=O)c1c(O)cc(O)c(C(=O)CCC)c1O` [Compound 6, 1,3-(2,4,6-trihydroxyphenyl)dibutanone], in test [1], the half-inhibitory concentration (IC50) is above 100 µM and the inhibition at 100 µM was 33.7 ± 2.3%.

Turning to `CCC(=O)c1c(O)c(C(=O)CC)c(O)c(C(=O)CC)c1O` [Compound 10, tripropionylphloroglucinol], in test [1], the IC50 is above 100 µM and the inhibition at 100 µM was found to be 41.4 ± 1.7%.

As for `CCCC(=O)c1c(O)c(C(=O)CCC)c(O)c(C(=O)CCC)c1O` [Compound 11, tributyrylphloroglucinol], in test [1], 43 ± 2.9 µM corresponded to half-maximal inhibition (IC50) and the inhibition at 100 µM turned out to be 87.3 ± 3.4%.

As to `CCCC(=O)c1c(O)cc(O)c(-c2c(O)cc(O)c(C(=O)CCC)c2O)c1O` [Compound 12, bis-phlorobutyrophenone], in test [1], the IC50 was above 100 µM and the inhibition at 100 µM came to 34.1 ± 0.5%.

`CCCC(=O)c1c(O)cc(O)c(Cc2c(O)cc(O)c(C(=O)CC)c2O)c1O` [Compound 13, dryopidin PB]: in test [2], the affinity, expressed as Ki, was 6.3 µM and the “Inhibition Type” value is “Competitive”. Moreover, in test [1], it took 18.1 ± 1.5 µM to reach half-maximal inhibition (IC50) and the inhibition at 100 µM was determined as 93.7 ± 0.3%.

With `CCCC(=O)c1c(O)cc(O)c(Cc2c(O)cc(O)c(C(=O)CCC)c2O)c1O` [Compound 14, methylene-bis-phlorobutyrophenone], in test [2], the inhibition constant (Ki) (commonly the dissociation constant of the complex between target and ligand, obtained from inhibition or displacement) was found to be 4.3 µM; the “Inhibition Type” value is reported as “Competitive”. For the same compound, in test [1], the IC50 was determined as 14.4 ± 0.6 µM and the inhibition at 100 µM was found to be 97.1 ± 0.7%.

For `CCCC(=O)c1c(O)cc(O)c(Cc2c(O)c(C)c(O)c(C(=O)CCC)c2O)c1O` [Compound 15, araspidin BB], in test [2], affinity was put at a Ki of 25.8 µM and the “Inhibition Type” value is “Competitive”. Besides, in test [1], the concentration for half-maximal inhibition (IC50) came to 17 ± 2.5 µM and the inhibition at 100 µM worked out at 89.1 ± 0.3%.

On to `CCC(=O)c1c(O)cc(O)c(CC2=C(O)C(C)(C)C(O)=C(C(C)=O)C2=O)c1O` [Compound 16, norflavaspidic acid AP], for which, in test [1], inhibition was half-maximal at 64.4 ± 3.5 µM (IC50) and the inhibition at 100 µM turned out to be 68.3 ± 0.2%.

On to `CCCC(=O)c1c(O)cc(O)c(CC2=C(O)C(C)(C)C(O)=C(C(C)=O)C2=O)c1O` [Compound 17, norflavaspidic acid AB], for which, in test [1], the half-maximal inhibitory concentration (IC50) was 67 ± 1.3 µM and the inhibition at 100 µM amounted to 65.1 ± 0.1%.

`CCCC(=O)c1c(O)cc(O)c(CC2=C(O)C(C)(C)C(O)=C(C(=O)CC)C2=O)c1O` [Compound 18, norflavaspidic acid PB]: in test [1], the half-inhibitory concentration (IC50) is above 100 µM and the inhibition at 100 µM was 42.2 ± 0.1%. In addition, the half-maximal inhibitory concentration (IC50) in test [3] is 35.7 µM.

Take `CCCC(=O)C1=C(O)C(C)(C)C(O)=C(Cc2c(O)cc(O)c(C(=O)CCC)c2O)C1=O` [Compound 19, norflavaspidic acid BB]: in test [1], the IC50 was above 100 µM and the inhibition at 100 µM is 41 ± 1.4%.

Consider `CC(=O)C1=C(O)C(C)(C)C(O)=C(Cc2c(O)c(C)c(O)c(C(C)=O)c2O)C1=O` [Compound 20, flavaspidic acid AA], for which, in test [1], the IC50 is 75.7 ± 1.2 µM and the inhibition at 100 µM was 76.1 ± 3.4%.

Regarding `CCC(=O)c1c(O)c(C)c(O)c(CC2=C(O)C(C)(C)C(O)=C(C(C)=O)C2=O)c1O` [Compound 21, flavaspidic acid AP], in test [1], the IC50 was above 100 µM and the inhibition at 100 µM amounted to 47.9 ± 4.7%.

Regarding `CCCC(=O)c1c(O)c(C)c(O)c(CC2=C(O)C(C)(C)C(O)=C(C(C)=O)C2=O)c1O` [Compound 22, flavaspidic acid AB], in test [1], the IC50 was above 100 µM and the inhibition at 100 µM worked out at 48.7 ± 4.8%.

For `CCCC(=O)c1c(O)c(C)c(O)c(CC2=C(O)C(C)(C)C(O)=C(C(=O)CC)C2=O)c1O` [Compound 23, flavaspidic acid PB], in test [1], the IC50 worked out at 76.5 ± 1.5 µM and the inhibition at 100 µM worked out at 73.5 ± 0.7%. The IC50 in test [3] was 38.9 µM.

Take `CCCC(=O)c1c(O)c(CC2=C(O)C(C)(C)C(O)=C(C(C)=O)C2=O)c(O)c(C2CCCN2C(=N)N)c1O` (centres unmarked) [Compound 25, dryopcrassirine AB]: in test [1], the 50% inhibitory concentration (IC50) was above 100 µM and the inhibition at 100 µM worked out at 30.7 ± 1.7%.

On to `CCCC(=O)c1c(O)cc(O)c(Cc2c(O)c(CC3=C(O)C(C)(C)C(O)=C(C(C)=O)C3=O)c(O)c(C(=O)CCC)c2O)c1O` [Compound 26, nortrisflavaspidic acid ABB], for which the “activity toward the PTP1B enzyme” value with PTP1B enzyme is “significant activity”. In test [2], the affinity, expressed as Ki, was 7.5 µM and the “Inhibition Type” value is “Competitive”. In test [1], the IC50 amounted to 8 ± 1.8 µM and the inhibition at 100 µM stood at 98.1 ± 2.5%. In addition, in test [4], the half-inhibitory concentration (IC50) is 51.5 µM.

For `CCCC(=O)c1c(O)c(C)c(O)c(Cc2c(O)c(CC3=C(O)C(C)(C)C(O)=C(C(C)=O)C3=O)c(O)c(C(=O)CCC)c2O)c1O` [Compound 27, trisflavaspidic acid ABB], the “activity toward the PTP1B enzyme” value in the test with PTP1B enzyme is “significant activity”. In test [2], the Ki was found to be 0.5 µM and the “Inhibition Type” value was “Competitive”. Further, in test [1], the concentration for half-maximal inhibition (IC50) was 7.1 ± 2.6 µM and the inhibition at 100 µM was determined as 101.2 ± 0.6%.

Take `CCCC(=O)C1=C(O)C(C)(C)C(O)=C(Cc2c(O)c(Cc3c(O)c(C)c(O)c(C(=O)CCC)c3O)c(O)c(C(=O)CCC)c2O)C1=O` [Compound 28, trisflavaspidic acid BBB]: the “activity toward the PTP1B enzyme” value with PTP1B enzyme is listed as “significant activity”. Moreover, in test [2], the inhibition constant (Ki) was determined as 2.8 µM and the “Inhibition Type” value was “Competitive”. Besides, in test [1], the IC50 turned out to be 5.6 ± 1.1 µM and the inhibition at 100 µM was determined as 106 ± 3.4%.

Consider `CCCC(=O)c1c(O)c(CC2=C(O)C(C)(C)C(O)=C(C(C)=O)C2=O)c(O)c(CC2=C(O)C(C)(C)C(O)=C(C(C)=O)C2=O)c1O` [Compound 29, filixic acid ABA], for which, in test [1], the IC50 turned out to be 90.5 ± 2.7 µM and the inhibition at 100 µM turned out to be 53.4 ± 2.3%. In addition, in test [4], the IC50 was 29.6 µM.

On to `CCCC(=O)c1c(O)c(CC2=C(O)C(C)(C)C(O)=C(C(C)=O)C2=O)c(O)c(Cc2c(O)c(CC3=C(O)C(C)(C)C(O)=C(C(C)=O)C3=O)c(O)c(C(=O)CCC)c2O)c1O` [Compound 30, dryocrassin ABBA], for which, in test [1], the midpoint of inhibition, the IC50, lay at 94.9 ± 2.5 µM and the inhibition at 100 µM was found to be 51.8 ± 2.7%.

On to `O=C(O)[C@@H](O)[C@H]1OC(=O)[C@H](O)[C@H]1O` [DSA, D-saccharic acid 1,4-lactone, reference compound], for which, in test [1], half-maximal inhibition (IC50) required 23.4 ± 1.5 µM and the inhibition at 100 µM is 79 ± 0.3%.
